{
  "source": "patent US20260226019A1",
  "about": "“NEGATIVE ALLOSTERIC MODULATORS OF METABOTROPIC GLUTAMATE RECEPTOR 2” (Vanderbilt University, priority 2023, published 2026)",
  "data": [
    {"target": "T1, human mGlu2 (Homo sapiens, UniProt Q14416)", "T1 construct": "expressed in transfected cells; host or cells: HEK-293 stably co-expressing GIRK channels", "T1 sequence (Q14416 19-872)": "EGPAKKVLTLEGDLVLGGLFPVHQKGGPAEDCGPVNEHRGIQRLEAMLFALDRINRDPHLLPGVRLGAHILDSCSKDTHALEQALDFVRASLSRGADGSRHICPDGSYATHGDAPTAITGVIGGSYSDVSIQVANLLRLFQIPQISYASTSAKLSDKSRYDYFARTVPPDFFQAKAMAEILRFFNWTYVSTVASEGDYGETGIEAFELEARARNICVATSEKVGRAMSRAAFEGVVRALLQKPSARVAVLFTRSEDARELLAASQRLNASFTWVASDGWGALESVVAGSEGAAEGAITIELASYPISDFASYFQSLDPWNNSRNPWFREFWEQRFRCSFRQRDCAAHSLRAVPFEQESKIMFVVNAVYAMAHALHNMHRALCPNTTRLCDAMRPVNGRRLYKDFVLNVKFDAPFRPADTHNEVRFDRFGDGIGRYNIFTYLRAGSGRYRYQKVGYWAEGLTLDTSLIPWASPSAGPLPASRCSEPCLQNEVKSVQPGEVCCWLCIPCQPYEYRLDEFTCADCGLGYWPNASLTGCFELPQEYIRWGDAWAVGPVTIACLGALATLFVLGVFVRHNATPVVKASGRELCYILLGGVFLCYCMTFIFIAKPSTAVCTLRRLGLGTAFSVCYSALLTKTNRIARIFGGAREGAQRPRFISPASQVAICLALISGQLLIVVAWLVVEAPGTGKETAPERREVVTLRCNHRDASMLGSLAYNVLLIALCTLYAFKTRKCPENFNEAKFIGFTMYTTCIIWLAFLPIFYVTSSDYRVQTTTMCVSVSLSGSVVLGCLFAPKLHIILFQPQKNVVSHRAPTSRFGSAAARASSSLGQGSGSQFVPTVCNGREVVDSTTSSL", "assay": "mGlu GIRK cell-based thallium flux assay, human mGlu2", "details": "HEK-293 cells co-expressing human mGlu2 and GIRK, EC80 glutamate, single experiment", "experimental": "Human embryonic kidney (HEK-293) cell lines stably co-expressing human or rat mGlu2 and G protein-coupled inwardly rectifying potassium (GIRK) channels, or human mGlu3 and GIRK, were used for in vitro evaluation of compound activity in thallium flux assay using a fluorescent thallium indicator dye.\nThe day before the assay, GIRK cells co-expressing human mGlu3, human or rat mGlu2, as described above, were plated in black-walled, clear-bottomed, amine-coated 384-well plates at a density of 15,000 cells/[…]/well in the assay medium (glutamine-depleted basal DMEM supplemented with 10% dialyzed FBS, 20 mM HEPES, 1 mM sodium pyruvate). Cells were incubated at 37° C. in the presence of 5% CO2. The next day, assay buffer (Hanks balanced salt solution, 20 mM HEPES, 4.16 mM sodium bicarbonate, pH 7.2) was prepared to dilute compounds and Thallos AM fluorescent dye solution. The 2× Thallos dye solution (final concentration 0.34 μM to the cells) was prepared by mixing the dye stock (2.97 mM in DMSO) to 1:1 with 10% pluronic acid before adding to the assay buffer. Cells were washed with assay buffer using a microplate washer to remove the medium, resulting in 20 μL of buffer remaining in each well. […] During the cell dye loading incubation period, a 10-point concentration serial dilution of compound was created from a 10 mM DMSO compound stock by performing a 1:3 serial dilution in DMSO using the Bravo liquid handler. The 2× compound plate was generated by transferring 0.24 μL of the diluted compound in each well to a daughter plate using an Echo acoustic liquid handler. This is further diluted in 40 μL assay buffer, resulting in a range from […] to 1.5 nM final concentration in the assay. The agonist plate (5×) was prepared to include EC80 glutamate concentration (a concentration to elicit 80% of a maximally effective glutamate concentration) in thallium buffer (125 mM sodium bicarbonate, 1 mM magnesium sulfate, 1.8 mM calcium sulfate, 5 mM glucose, 10 mM HEPES, pH 7.2, 12.5 mM thallium sulfate).\nAfter dye-loading, cell plates were washed with assay buffer to remove excess extracellular dye using a microplate washer, resulting in 20 μL of buffer remaining in each well. After a ten-minute equilibration period, cell, compound and agonist plates were loaded into a Hamamatsu μCell kinetic imaging plate reader equipped with liquid handler to monitor fluorescence changes at 480 nm excitation and 540 nm emission settings. Briefly, after collection of baseline fluorescence, 20 μL of compound was added and incubated for two minutes and twenty seconds. This is immediately followed by adding 10 μL of glutamate-thallium buffer to the wells containing compound. The fluorescent signal was monitored an additional 2.5 minutes after the glutamate addition. Multiple reference wells containing no compound received either no glutamate (for a baseline reference), EC80 glutamate, or ECmax glutamate (for normalization to maximum response). […] Each compound concentration series occurred one time in each plate, and replicates from two or three plates were used in each experimental run. Thallium solutions were handled and disposed of according to guidelines from the Vanderbilt University Chemical Safety department.\nData were normalized using a static ratio function (F/F0) by dividing every fluorescent measurement by the initial fluorescent value for the corresponding well. The increase in signal resulting from the glutamate/thallium addition of the second add was measured by determining the slope from 3 seconds to 13 seconds after the addition. The average of all baseline slopes (no compound, no glutamate) was determined and this value was subtracted from all other slope values. The average of all ECmax slopes was determined and this value was used to normalize the baseline-corrected slopes to a percent max value (% Emax).", "units": {"IC50": "µM"}, "values": [
      {"smiles": "O=C1NCc2c1cc(-c1ccc(F)cc1F)cc2N1C[C@H]2C[C@@H]1CO2", "note": "(racemic) [Compound A21, rac-4-((1R,4R)-2-oxa-5-azabicyclo[2.2.1]heptan-5-yl)-6-(2,4-difluorophenyl)isoindolin-1-one]", "IC50": 0.306},
      {"smiles": "O=C1NCc2c1cc(-c1ccc(F)cc1F)cc2-c1ccc(F)cc1F", "note": "[Compound 4, 4,6-bis(2,4-difluorophenyl)isoindolin-1-one]", "IC50": 2.07},
      {"smiles": "O=C1NCc2c1cc(-c1ccc(F)cc1F)cc2-c1cnn(C(F)F)c1", "note": "[Compound 8, 4-(1-(difluoromethyl)-1H-pyrazol-4-yl)-6-(2,4-difluorophenyl)isoindolin-1-one]", "IC50": "> 10"},
      {"smiles": "O=C1NCc2c1cc(-c1ccc(F)cc1F)cc2-c1ccnnc1", "note": "[Compound 12, 6-(2,4-difluorophenyl)-4-(pyridazin-4-yl)isoindolin-1-one]", "IC50": 1.12},
      {"smiles": "Cn1cc(-c2cc(-c3ccc(F)cc3F)cc3c2CNC3=O)cc1C#N", "note": "[Compound 14, 4-(6-(2,4-difluorophenyl)-1-oxoisoindolin-4-yl)-1-methyl-1H-pyrrole-2-carbonitrile]", "IC50": 3.08},
      {"smiles": "O=C1NCc2c1cc(-c1ccc(F)cc1F)cc2-c1ccsc1", "note": "[Compound 15, 6-(2,4-difluorophenyl)-4-(thiophen-3-yl)isoindolin-1-one]", "IC50": 3.23},
      {"smiles": "O=C1NCc2c1cc(-c1ccc(F)cc1F)cc2-c1cnn(C2CCCC2)c1", "note": "[Compound 16, 4-(1-cyclopentyl-1H-pyrazol-4-yl)-6-(2,4-difluorophenyl)isoindolin-1-one]", "IC50": 3.17},
      {"smiles": "O=C1NCc2c1cc(-c1ccc(F)cc1F)cc2-c1cnn(C2CCC2)c1", "note": "[Compound 17, 4-(1-cyclobutyl-1H-pyrazol-4-yl)-6-(2,4-difluorophenyl)isoindolin-1-one]", "IC50": 2.56},
      {"smiles": "Cc1sc(C)c(-c2cc(-c3ccc(F)cc3F)cc3c2CNC3=O)c1C", "note": "[Compound 20, 6-(2,4-difluorophenyl)-4-(2,4,5-trimethylthiophen-3-yl)isoindolin-1-one]", "IC50": 5.26},
      {"smiles": "O=C1NCc2c1cc(-c1ccc(F)cc1F)cc2-c1cnn(C2CCCCC2)c1", "note": "[Compound 21, 4-(1-cyclohexyl-1H-pyrazol-4-yl)-6-(2,4-difluorophenyl)isoindolin-1-one]", "Human mGlu2 GIRK IC50 (nM)": "Inactive"},
      {"smiles": "O=C1NCc2c1cc(-c1ccc(F)cc1F)cc2-c1ccc2cccnc2c1", "note": "[Compound 22, 6-(2,4-difluorophenyl)-4-(quinolin-7-yl)isoindolin-1-one]", "IC50": 2.38},
      {"smiles": "O=C1NCc2c1cc(-c1ccc(F)cc1F)cc2-c1ccc2cnccc2c1", "note": "[Compound 23, 6-(2,4-difluorophenyl)-4-(isoquinolin-6-yl)isoindolin-1-one]", "IC50": 1.38},
      {"smiles": "O=C1NCc2c1cc(-c1ccc(F)cc1F)cc2-c1ccc2ncccc2c1", "note": "[Compound 24, 6-(2,4-difluorophenyl)-4-(quinolin-6-yl)isoindolin-1-one]", "IC50": 1.66},
      {"smiles": "O=C1NCc2c1cc(-c1ccc(F)cc1F)cc2-c1cnc2ccccc2c1", "note": "[Compound 25, 6-(2,4-difluorophenyl)-4-(quinolin-3-yl)isoindolin-1-one]", "IC50": 3.31},
      {"smiles": "O=C1NCc2c1cc(-c1ccc(F)cc1F)cc2-c1ccc2ccncc2c1", "note": "[Compound 26, 6-(2,4-difluorophenyl)-4-(isoquinolin-7-yl)isoindolin-1-one]", "IC50": 2.69},
      {"smiles": "O=C1NCc2c1cc(-c1ccc(F)cc1F)cc2-c1ccc2nccnc2c1", "note": "[Compound 27, 6-(2,4-difluorophenyl)-4-(quinoxalin-6-yl)isoindolin-1-one]", "IC50": 1.83},
      {"smiles": "O=C1NCc2c1cc(-c1ccc(F)cc1F)cc2-c1cc2ccccc2s1", "note": "[Compound 28, 4-(benzo[b]thiophen-2-yl)-6-(2,4-difluorophenyl)isoindolin-1-one]", "Human mGlu2 GIRK IC50 (nM)": "Inactive"},
      {"smiles": "O=C1NCc2c1cc(-c1ccc(F)cc1F)cc2-c1ccco1", "note": "[Compound 29, 6-(2,4-difluorophenyl)-4-(furan-2-yl)isoindolin-1-one]", "Human mGlu2 GIRK IC50 (nM)": "Inactive"},
      {"smiles": "O=C1NCc2c1cc(-c1ccc(F)cc1F)cc2-c1cnc(C(F)(F)F)nc1", "note": "[Compound 32, 6-(2,4-difluorophenyl)-4-(2-(trifluoromethyl)pyrimidin-5-yl)isoindolin-1-one]", "IC50": 3.13},
      {"smiles": "N#Cc1ccc(-c2cc(-c3ccc(F)cc3F)cc3c2CNC3=O)cn1", "note": "[Compound 33, 5-(6-(2,4-difluorophenyl)-1-oxoisoindolin-4-yl)picolinonitrile]", "IC50": 1.54},
      {"smiles": "O=C1NCc2c1cc(-c1ccc(F)cc1F)cc2-c1cncnc1", "note": "[Compound 37, 6-(2,4-difluorophenyl)-4-(pyrimidin-5-yl)isoindolin-1-one]", "IC50": 0.95},
      {"smiles": "N#Cc1ccc(-c2cc3c(c(-c4cnsc4)c2)CNC3=O)c(F)c1", "note": "[Compound 43, 3-fluoro-4-(7-(isothiazol-4-yl)-3-oxoisoindolin-5-yl)benzonitrile]", "IC50": 5.07},
      {"smiles": "COc1ccc(-c2cc3c(c(-c4cnsc4)c2)CNC3=O)c(F)c1", "note": "[Compound 44, 6-(2-fluoro-4-methoxyphenyl)-4-(isothiazol-4-yl)isoindolin-1-one]", "IC50": 3.56},
      {"smiles": "O=C1NCc2c1cc(-c1c(F)cc(F)cc1F)cc2-c1cnsc1", "note": "[Compound 45, 4-(isothiazol-4-yl)-6-(2,4,6-trifluorophenyl)isoindolin-1-one]", "IC50": 2.07},
      {"smiles": "O=C1NCc2c1cc(-c1ccc(OC(F)F)cc1F)cc2-c1cnsc1", "note": "[Compound 46, 6-(4-(difluoromethoxy)-2-fluorophenyl)-4-(isothiazol-4-yl)isoindolin-1-one]", "IC50": "> 10"},
      {"smiles": "COc1cc(F)ccc1-c1cc2c(c(-c3cnsc3)c1)CNC2=O", "note": "[Compound 48, 6-(4-fluoro-2-methoxyphenyl)-4-(isothiazol-4-yl)isoindolin-1-one]", "IC50": "> 10"},
      {"smiles": "COc1ccc(-c2cc3c(c(-c4cnsc4)c2)CNC3=O)c(F)c1F", "note": "[Compound 49, 6-(2,3-difluoro-4-methoxyphenyl)-4-(isothiazol-4-yl)isoindolin-1-one]", "IC50": 3.48},
      {"smiles": "Cc1cc(-c2cc3c(c(-c4cnsc4)c2)CNC3=O)c(F)cc1F", "note": "[Compound 50, 6-(2,4-difluoro-5-methylphenyl)-4-(isothiazol-4-yl)isoindolin-1-one]", "IC50": "> 10"},
      {"smiles": "Cc1cc(-c2cc3c(c(-c4cnsc4)c2)CNC3=O)c(F)cc1C#N", "note": "[Compound 51, 5-fluoro-4-(7-(isothiazol-4-yl)-3-oxoisoindolin-5-yl)-2-methylbenzonitrile]", "Human mGlu2 GIRK IC50 (nM)": "Inactive"},
      {"smiles": "COc1cc(F)c(-c2cc3c(c(-c4cnsc4)c2)CNC3=O)cc1F", "note": "[Compound 52, 6-(2,5-difluoro-4-methoxyphenyl)-4-(isothiazol-4-yl)isoindolin-1-one]", "Human mGlu2 GIRK IC50 (nM)": "Inactive"},
      {"smiles": "COc1cc(C#N)ccc1-c1cc2c(c(-c3cnsc3)c1)CNC2=O", "note": "[Compound 53, 4-(7-(isothiazol-4-yl)-3-oxoisoindolin-5-yl)-3-methoxybenzonitrile]", "Human mGlu2 GIRK IC50 (nM)": "Inactive"},
      {"smiles": "CCOc1ccc(-c2cc3c(c(-c4cnsc4)c2)CNC3=O)c(F)c1F", "note": "[Compound 54, 6-(4-ethoxy-2,3-difluorophenyl)-4-(isothiazol-4-yl)isoindolin-1-one]", "IC50": "> 10"},
      {"smiles": "N#Cc1c(F)ccc(-c2cc3c(c(-c4cnsc4)c2)CNC3=O)c1F", "note": "[Compound 55, 2,6-difluoro-3-(7-(isothiazol-4-yl)-3-oxoisoindolin-5-yl)benzonitrile]", "IC50": "> 10"},
      {"smiles": "COc1cc(F)c(-c2cc3c(c(-c4cnsc4)c2)CNC3=O)c(F)c1", "note": "[Compound 56, 6-(2,6-difluoro-4-methoxyphenyl)-4-(isothiazol-4-yl)isoindolin-1-one]", "IC50": "> 10"},
      {"smiles": "N#Cc1c(F)cc(-c2cc3c(c(-c4cnsc4)c2)CNC3=O)cc1F", "note": "[Compound 57, 2,6-difluoro-4-(7-(isothiazol-4-yl)-3-oxoisoindolin-5-yl)benzonitrile]", "Human mGlu2 GIRK IC50 (nM)": "Inactive"},
      {"smiles": "O=Cc1ccc(-c2cc3c(c(-c4cnsc4)c2)CNC3=O)c(F)c1F", "note": "[Compound 58, 2,3-difluoro-4-(7-(isothiazol-4-yl)-3-oxoisoindolin-5-yl)benzaldehyde]", "IC50": "> 10"}
    ]}
  ]
}
